Measured values as given in ChEMBL document CHEMBL5131449, “Synthetic Biology-Based Discovery of Diterpenoid Pyrones from the Genome of Eupenicillium shearii” (J Nat Prod, 2022).
The source made the active and inactive calls. The rule behind the calls is not given here.

What follows are compounds tested against Amyloid-beta precursor protein (Homo sapiens) (UniProt P05067) (assay: Inhibition of HFIP-pretreated amyloid beta (1 to 42) (unknown origin) aggregation assessed as suppression of amyloid beta aggregation at 50 uM incubated for 24 hrs by Thioflavin T based fluorescence assay).
Sequence of Amyloid-beta precursor protein (Homo sapiens) (P05067 whole entry): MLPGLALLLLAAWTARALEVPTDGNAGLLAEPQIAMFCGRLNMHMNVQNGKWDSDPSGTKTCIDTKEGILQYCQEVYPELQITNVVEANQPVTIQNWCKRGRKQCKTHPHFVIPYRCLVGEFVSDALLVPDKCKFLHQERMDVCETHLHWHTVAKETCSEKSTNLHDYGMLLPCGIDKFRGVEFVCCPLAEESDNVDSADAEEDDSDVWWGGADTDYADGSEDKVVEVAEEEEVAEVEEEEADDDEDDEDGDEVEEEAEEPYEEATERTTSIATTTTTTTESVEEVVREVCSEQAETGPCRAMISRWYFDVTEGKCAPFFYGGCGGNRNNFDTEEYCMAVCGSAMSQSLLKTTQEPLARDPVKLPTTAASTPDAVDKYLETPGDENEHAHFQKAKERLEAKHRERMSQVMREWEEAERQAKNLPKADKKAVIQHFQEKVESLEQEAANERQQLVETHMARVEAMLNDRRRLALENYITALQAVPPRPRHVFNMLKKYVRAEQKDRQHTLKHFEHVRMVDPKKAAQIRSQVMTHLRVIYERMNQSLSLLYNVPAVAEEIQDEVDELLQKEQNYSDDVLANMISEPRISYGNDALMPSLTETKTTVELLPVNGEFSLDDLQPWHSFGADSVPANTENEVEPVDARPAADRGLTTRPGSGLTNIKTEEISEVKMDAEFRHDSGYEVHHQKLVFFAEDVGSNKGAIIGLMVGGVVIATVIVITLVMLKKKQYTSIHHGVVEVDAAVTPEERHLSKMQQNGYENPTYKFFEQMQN
Type: cell-based

inhibition, active:
Cc1oc(=O)c2c(c1C)O[C@@]1(C)[C@H](O)[C@H](O)[C@H]3[C@@](C)(CC[C@H]4C(C)(C)[C@@]5(O)CC[C@@]43CO5)[C@@H]1C2
Cc1oc(=O)c2c(c1C)O[C@@]1(C)[C@H](O)[C@H](O)[C@@H]3[C@@]4(C)CCC(=O)C(C)(C)[C@@H]4CC[C@@]3(C)[C@@H]1C2
Cc1oc(=O)c2c(c1C)O[C@@]1(C)[C@H](O)[C@H](O)[C@H]3[C@@](C)(CC[C@H]4C(C)(C)[C@@H](O)CC[C@@]43CO)[C@@H]1C2
